Data reported in a compilation of properties of binary mixtures (doi:10.1016/j.molliq.2012.10.026).

Assay: xn = mol fraction of the nth substance listed
Details: 101 kPa, x1 = 0.5

O=C1CCCCCN1 + CCCC[N+](CCCC)(CCCC)CCCC.[Cl-]
Details	electrical conductivity [S/m]
293.15 K	0.0409
295.65 K	0.0459
298.15 K	0.0554
300.65 K	0.0726
303.15 K	0.0934
305.65 K	0.116
308.15 K	0.142
310.65 K	0.172
318.15 K	0.31
320.65 K	0.368
323.15 K	0.431
325.65 K	0.49
330.65 K	0.61
333.15 K	0.707
